Reference: the supplement of paper PMC10307832

What was measured:
Assay in all cases: relative viability (nuclei count vs DMSO), 5 days (fraction); higher = more cells survive
BEN = test system: BEN
Method in brief: (§1)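 For relative viability, nuclei counts in treated wells were divided by those in vehicle wells. Lung cancer cell lines had been pin-tool dosed in 1536-well plates the day after seeding and cultured for 5 days, then fixed and stained in one step (final 0.05% Triton X-100, 1% formaldehyde, 1 ug/ml Hoechst) and imaged at 4×. Doses were one drug alone or a fixed anchor-drug dose plus five library-drug doses (not always all listed) in √10 steps, and values are duplicate-plate medians.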

EMC-BAC-2 = test system: EMC-BAC-2
Method in brief: as §1

HCC-366 = test system: HCC-366
Method in brief: as §1

HCC-78 = test system: HCC-78
Method in brief: as §1

LC-2-ad = test system: LC-2-ad
Method in brief: as §1

LXF-289 = test system: LXF-289
Method in brief: as §1

NCI-H1623 = test system: NCI-H1623
Method in brief: as §1

NCI-H1650 = test system: NCI-H1650
Method in brief: as §1

NCI-H1666 = test system: NCI-H1666
Method in brief: as §1

NCI-H1915 = test system: NCI-H1915
Method in brief: as §1

NCI-H1944 = test system: NCI-H1944
Method in brief: as §1

NCI-H1993 = test system: NCI-H1993
Method in brief: as §1

NCI-H2085 = test system: NCI-H2085
Method in brief: as §1

NCI-H2087 = test system: NCI-H2087
Method in brief: as §1

NCI-H2170 = test system: NCI-H2170
Method in brief: as §1

NCI-H2228 = test system: NCI-H2228
Method in brief: as §1

NCI-H2347 = test system: NCI-H2347
Method in brief: as §1

NCI-H358 = test system: NCI-H358
Method in brief: as §1

NCI-H650 = test system: NCI-H650
Method in brief: as §1

NCI-H727 = test system: NCI-H727
Method in brief: as §1

PC-14 = test system: PC-14
Method in brief: as §1

RERF-LC-KJ = test system: RERF-LC-KJ
Method in brief: as §1

SW 900 = test system: SW 900
Method in brief: as §1

Nc1cccc2c1CN(C1CCC(=O)NC1=O)C2=O (configuration not stated) [Lenalidomide] + Cc1cc(Nc2cc(N3CCN(C)CC3)nc(Sc3ccc(NC(=O)C4CC4)cc3)n2)n[nH]1 [Tozasertib] (partner 0.1 µM)
relative viability (BEN; first compound 0.253 µM): 0.594
relative viability (BEN; first compound 0.8 µM): 0.462
relative viability (BEN; first compound 2.53 µM): 0.441
relative viability (BEN; first compound 8 µM): 0.57
relative viability (EMC-BAC-2; first compound 0.253 µM): 0.287
relative viability (EMC-BAC-2; first compound 0.8 µM): 0.272
relative viability (EMC-BAC-2; first compound 2.53 µM): 0.298
relative viability (EMC-BAC-2; first compound 8 µM): 0.333
relative viability (HCC-366; first compound 0.253 µM): 0.14
relative viability (HCC-366; first compound 0.8 µM): 0.128
relative viability (HCC-366; first compound 2.53 µM): 0.154
relative viability (HCC-366; first compound 8 µM): 0.131
relative viability (HCC-78; first compound 0.253 µM): 0.537
relative viability (HCC-78; first compound 0.8 µM): 0.44
relative viability (HCC-78; first compound 2.53 µM): 0.443
relative viability (HCC-78; first compound 8 µM): 0.49
relative viability (LC-2-ad; first compound 0.253 µM): 0.538
relative viability (LC-2-ad; first compound 2.53 µM): 0.469
relative viability (LC-2-ad; first compound 8 µM): 0.469
relative viability (LXF-289; first compound 0.253 µM): 0.206
relative viability (LXF-289; first compound 0.8 µM): 0.191
relative viability (LXF-289; first compound 2.53 µM): 0.25
relative viability (LXF-289; first compound 8 µM): 0.229
relative viability (NCI-H1623; first compound 0.253 µM): 0.427
relative viability (NCI-H1623; first compound 0.8 µM): 0.36
relative viability (NCI-H1623; first compound 2.53 µM): 0.43
relative viability (NCI-H1623; first compound 8 µM): 0.496
relative viability (NCI-H1650; first compound 0.8 µM): 0.58
relative viability (NCI-H1650; first compound 2.53 µM): 0.563
relative viability (NCI-H1650; first compound 8 µM): 0.592
relative viability (NCI-H1666; first compound 0.253 µM): 0.585
relative viability (NCI-H1666; first compound 2.53 µM): 0.655
relative viability (NCI-H1666; first compound 8 µM): 0.653
relative viability (NCI-H1915; first compound 0.253 µM): 0.45
relative viability (NCI-H1915; first compound 0.8 µM): 0.471
relative viability (NCI-H1915; first compound 2.53 µM): 0.437
relative viability (NCI-H1915; first compound 8 µM): 0.527
relative viability (NCI-H1944; first compound 0.253 µM): 0.234
relative viability (NCI-H1944; first compound 0.8 µM): 0.278
relative viability (NCI-H1944; first compound 2.53 µM): 0.285
relative viability (NCI-H1944; first compound 8 µM): 0.232
relative viability (NCI-H1993; first compound 0.253 µM): 0.529
relative viability (NCI-H1993; first compound 0.8 µM): 0.572
relative viability (NCI-H1993; first compound 2.53 µM): 0.618
relative viability (NCI-H1993; first compound 8 µM): 0.524
relative viability (NCI-H2085; first compound 0.253 µM): 0.819
relative viability (NCI-H2085; first compound 0.8 µM): 0.886
relative viability (NCI-H2085; first compound 2.53 µM): 0.938
relative viability (NCI-H2085; first compound 8 µM): 0.878
relative viability (NCI-H2087; first compound 0.253 µM): 0.24
relative viability (NCI-H2087; first compound 0.8 µM): 0.226
relative viability (NCI-H2087; first compound 2.53 µM): 0.277
relative viability (NCI-H2087; first compound 8 µM): 0.242
relative viability (NCI-H2170; first compound 0.253 µM): 0.612
relative viability (NCI-H2170; first compound 0.8 µM): 0.608
relative viability (NCI-H2170; first compound 2.53 µM): 0.747
relative viability (NCI-H2170; first compound 8 µM): 0.753
relative viability (NCI-H2228; first compound 0.253 µM): 0.288
relative viability (NCI-H2228; first compound 0.8 µM): 0.338
relative viability (NCI-H2228; first compound 2.53 µM): 0.283
relative viability (NCI-H2228; first compound 8 µM): 0.345
relative viability (NCI-H2347; first compound 0.253 µM): 0.633
relative viability (NCI-H2347; first compound 0.8 µM): 0.414
relative viability (NCI-H2347; first compound 2.53 µM): 0.643
relative viability (NCI-H2347; first compound 8 µM): 0.599
relative viability (NCI-H358; first compound 0.253 µM): 0.12
relative viability (NCI-H358; first compound 0.8 µM): 0.107
relative viability (NCI-H358; first compound 2.53 µM): 0.103
relative viability (NCI-H358; first compound 8 µM): 0.0989
relative viability (NCI-H650; first compound 0.253 µM): 0.795
relative viability (NCI-H650; first compound 2.53 µM): 0.869
relative viability (NCI-H650; first compound 8 µM): 0.714
relative viability (NCI-H727; first compound 0.253 µM): 0.615
relative viability (NCI-H727; first compound 0.8 µM): 0.585
relative viability (NCI-H727; first compound 2.53 µM): 0.56
relative viability (NCI-H727; first compound 8 µM): 0.756
relative viability (PC-14; first compound 0.253 µM): 0.629
relative viability (PC-14; first compound 0.8 µM): 0.696
relative viability (PC-14; first compound 2.53 µM): 0.706
relative viability (PC-14; first compound 8 µM): 0.738
relative viability (RERF-LC-KJ; first compound 0.253 µM): 0.507
relative viability (RERF-LC-KJ; first compound 0.8 µM): 0.566
relative viability (RERF-LC-KJ; first compound 2.53 µM): 0.515
relative viability (RERF-LC-KJ; first compound 8 µM): 0.568
relative viability (SW 900; first compound 0.253 µM): 0.544
relative viability (SW 900; first compound 2.53 µM): 0.635
relative viability (SW 900; first compound 8 µM): 0.616
